Source: PubChem BioAssay AID212 (DTP/NCI, 2004)
Where “and” joins values, the source holds several entries; their conditions need not be identical. Equal values may be shown once. Inconclusive results are not listed.

Tested on: BDF1 mice, colon carcinoma 38 sc, T/C %
Experiment: NCI In Vivo Anticancer Drug Screen. Data for tumor model Colon Carcinoma 38 (subcutaneous) in B6D2F1 (BDF1) mice
Conditions: endpoint: median tumor weight (est.), higher = larger tumour
Outline: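 T/C readout: treated group (T) measurement over vehicle control group (C) measurement. Endpoint is survival or tumor size in mice bearing a transplanted tumor.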

[1] = dose: 12.5 mg/kg/injection, schedule: Q07DX002 (ip), vehicle: Klucel (hydroxypropylcellulose) (HPC)
[2] = dose: 25.0 mg/kg/injection, schedule: Q07DX002 (ip), vehicle: Klucel (hydroxypropylcellulose) (HPC)
[3] = dose: 50.0 mg/kg/injection, schedule: Q07DX002 (ip), vehicle: Klucel (hydroxypropylcellulose) (HPC)
[4] = dose: 6.25 mg/kg/injection, schedule: Q07DX002 (ip), vehicle: saline with Tween-80
[5] = dose: 6.25 mg/kg/injection, schedule: Q07DX002 (ip), vehicle: saline
[6] = dose: 12.5 mg/kg/injection, schedule: Q07DX002 (ip), vehicle: saline

For C=C(Cl)C(=NC(C)(C)C)Nc1ccccc1C, the T/C (dose: 6.25 mg/kg/injection, schedule: Q07DX002 (ip), vehicle: Klucel (hydroxypropylcellulose) (HPC)) was 68 % of control, the T/C [1] was 96 % of control and the T/C [2] was 76 % of control. For the same compound, the T/C [3] was 84 % of control and the T/C (dose: 100.0 mg/kg/injection, schedule: Q07DX002 (ip), vehicle: Klucel (hydroxypropylcellulose) (HPC)) was 113 % of control.

For C=Cc1cnc([N+](=O)[O-])n1C, the T/C [1] was 67 % of control and 84 % of control, the T/C [2] was 109 % of control and 97 % of control and the T/C [3] was 62 % of control and 69 % of control.

In the case of CSc1nc(=O)[nH]nc1SCc1ccccc1, the T/C [2] is reported as 151 % of control and 169 % of control and the T/C (dose: 400.0 mg/kg/injection, schedule: Q07DX002 (ip), vehicle: Klucel (hydroxypropylcellulose) (HPC)) is reported as 65 % of control.

Cc1ccccc1SSc1ccccc1C was tested, and the T/C (dose: 25.0 mg/kg/injection, schedule: Q07DX003 (ip), vehicle: other) was 92 % of control, the T/C (dose: 25.0 mg/kg/injection, schedule: Q07DX003 (ip), vehicle: saline with Tween-80) was 96 % of control and the T/C (dose: 50.0 mg/kg/injection, schedule: Q07DX003 (ip), vehicle: other) was 123 % of control. The T/C (dose: 50.0 mg/kg/injection, schedule: Q07DX003 (ip), vehicle: saline with Tween-80) was 88 % of control, the T/C (dose: 100.0 mg/kg/injection, schedule: Q07DX003 (ip), vehicle: other) was 89 % of control and the T/C (dose: 100.0 mg/kg/injection, schedule: Q07DX003 (ip), vehicle: saline with Tween-80) was 62 % of control. The T/C (dose: 200.0 mg/kg/injection, schedule: Q07DX003 (ip), vehicle: other) was 84 % of control and the T/C (dose: 200.0 mg/kg/injection, schedule: Q07DX003 (ip), vehicle: saline with Tween-80) was 74 % of control.

With COc1ccc(S(=O)(=O)N/N=C/C(=O)O)cc1 the T/C [4] was 82 % of control, the T/C (dose: 25.0 mg/kg/injection, schedule: Q07DX002 (ip), vehicle: saline with Tween-80) was 96 % of control and 104 % of control and the T/C (dose: 50.0 mg/kg/injection, schedule: Q07DX002 (ip), vehicle: saline with Tween-80) was 117 % of control and 100 % of control. For the same compound, the T/C (dose: 200.0 mg/kg/injection, schedule: Q07DX002 (ip), vehicle: saline with Tween-80) was 87 % of control and 95 % of control.

In the case of CN(C)CCN1C(=O)c2cccc3cc([N+](=O)[O-])cc(c23)C1=O, the T/C (dose: 1.56 mg/kg/injection, schedule: Q07DX002 (ip), vehicle: saline with Tween-80) is reported as 93 % of control, the T/C (dose: 3.13 mg/kg/injection, schedule: Q07DX002 (ip), vehicle: saline with Tween-80) is reported as 90 % of control and the T/C [4] is reported as 70 % of control. For the same compound, the T/C (dose: 12.5 mg/kg/injection, schedule: Q07DX002 (ip), vehicle: saline with Tween-80) was 56 % of control.

CCCNC1=C(C)C(=O)C2=C(C1=O)[C@H](COC(N)=O)[C@]1(OC)[C@@H]3N[C@@H]3CN21 was tested, and the T/C (dose: 0.78 mg/kg/injection, schedule: Q07DX002 (ip), vehicle: saline) was 72 % of control, the T/C (dose: 1.56 mg/kg/injection, schedule: Q07DX002 (ip), vehicle: saline) was 85 % of control and the T/C (dose: 3.12 mg/kg/injection, schedule: Q07DX002 (ip), vehicle: saline) was 84 % of control. For the same compound, the T/C (dose: 6.0 mg/kg/injection, schedule: Q07DX002 (ip), vehicle: suspension in saline) was 84 % of control, the T/C [5] was 25 % of control and the T/C (dose: 12.0 mg/kg/injection, schedule: Q07DX002 (ip), vehicle: suspension in saline) was 34 % of control. The T/C [6] was 6 % of control.

For CCN(CC)CCC(=O)c1ccccc1, the T/C [5] was 85 % of control, the T/C [6] was 118 % of control and 108 % of control and the T/C (dose: 12.5 mg/kg/injection, schedule: Q07DX002 (ip), vehicle: suspension in saline) was 122 % of control. For the same compound, the T/C (dose: 25.0 mg/kg/injection, schedule: Q07DX002 (ip), vehicle: suspension in saline) was 80 % of control, the T/C (dose: 50.0 mg/kg/injection, schedule: Q07DX002 (ip), vehicle: suspension in saline) was 85 % of control and the T/C (dose: 100.0 mg/kg/injection, schedule: Q07DX002 (ip), vehicle: saline) was 108 % of control.

For C/C(=N\N=C(/[Se])N1CC2CCC(CC2)C1)c1ccccn1, the T/C (dose: 3.0 mg/kg/injection, schedule: Q07DX002 (ip), vehicle: Klucel (hydroxypropylcellulose) (HPC)) was 111 % of control, the T/C (dose: 6.0 mg/kg/injection, schedule: Q07DX002 (ip), vehicle: Klucel (hydroxypropylcellulose) (HPC)) was 67 % of control and the T/C (dose: 12.0 mg/kg/injection, schedule: Q07DX002 (ip), vehicle: Klucel (hydroxypropylcellulose) (HPC)) was 91 % of control. For the same compound, the T/C [2] was 106 % of control and the T/C [3] was 45 % of control.
